# Source: ChEMBL document CHEMBL3774389, “C-3 benzoic acid derivatives of C-3 deoxybetulinic acid and deoxybetulin as HIV-1 maturation inhibitors” (Bioorg Med Chem, 2016)
# Experiments:
# [1] = tested on: Human immunodeficiency virus 1; experiment: Antiviral activity against wild type HIV1 NLRepRlucP373S infected in human MT2 cells after 4 to 5 days by luciferase report gene based multiple cycle drug susceptibility assay; type: functional, organism-based; conditions: Human immunodeficiency virus 1, NLRepRlucP373S
# [2] = tested on: Human immunodeficiency virus 1; experiment: Antiviral activity against wild type HIV1 NLRepRlucP373S infected in human MT2 cells after 4 to 5 days in presence of 15 mg/ml HSA by luciferase report gene based multiple cycle drug susceptibility assay; type: functional, organism-based; conditions: Human immunodeficiency virus 1, NLRepRlucP373S
# [3] = tested on: Human immunodeficiency virus 1; experiment: Ratio of EC50 for HIV1 NLRepRlucP373S infected in human MT2 cells in presence of HSA to EC50 for HIV1 NLRepRlucP373S infected in human MT2 cells in absence of HSA; type: functional
# [4] = tested on: Human immunodeficiency virus 1; experiment: Antiviral activity against HIV1 containing gag V370A mutant infected in human MT2 cells after 4 to 5 days by luciferase report gene based multiple cycle drug susceptibility assay; type: functional, organism-based; conditions: Human immunodeficiency virus 1, MT2
# [5] = Cytotoxicity against human MT2 cells assessed as cell viability by redox dye assay; type: cell-based
# [6] = Half life in human liver microsomes at 0.5 uM by LC-MS/MS analysis in presence of NADPH; type: ADME
# [7] = Half life in rat liver microsomes at 0.5 uM by LC-MS/MS analysis in presence of NADPH; type: ADME
# [8] = Oral bioavailability in rat at 5 mg/kg by LC-MS/MS; type: ADME, organism-based; conditions: in vivo
# [9] = AUC(0 to 6 hrs) in rat at 5 mg/kg, po by LC-MS/MS; type: ADME, organism-based; set-up: time < 6 hr, dose 5 mg/kg, route oral; conditions: in vivo
# [10] = Cmax in rat at 5 mg/kg, po by LC-MS/MS; type: ADME, organism-based; set-up: dose 5 mg/kg, route oral; conditions: in vivo
# [11] = Tmax in rat at 5 mg/kg, po by LC-MS/MS; type: ADME, organism-based; conditions: in vivo
# [12] = Clearance in cannula implanted rat at 1 mg/kg, iv by LC-MS/MS; type: ADME, organism-based; conditions: in vivo
# [13] = Volume of distribution in steady state in cannula implanted rat at 1 mg/kg, iv by LC-MS/MS; type: ADME, organism-based; conditions: in vivo, read-out: Vdss
# [14] = Solubility of the compound; type: physicochemical
# HEK-293T = experiment: Binding affinity to HIV1 Gag polyprotein assessed as protease-mediated p25-Spacer peptide 1 cleavage in HEK293T cells by measuring […] ratio at 2 uM by Western blot analysis; type: cell-based; conditions: Human immunodeficiency virus 1
# [15] = Displacement of [3H]-dihydro-bevirimat from HIV1 Gag polyprotein virus like particles after 3 hrs; set-up: species or system Human immunodeficiency virus 1
# [16] = tested on: Human immunodeficiency virus 1; experiment: Antiviral activity against wild type HIV1 NLRepRlucP373S infected in human MT2 cells after 4 to 5 days in presence of 27 mg/ml HSA by luciferase report gene based multiple cycle drug susceptibility assay; type: functional, organism-based; conditions: Human immunodeficiency virus 1, NLRepRlucP373S
# [17] = Protein binding of the compound in plasma (unknown origin); type: ADME, cell-free; conditions: read-out: PB
Compound,EC50 [1],EC50 [2],Ratio EC50 [3],EC50 [4],CC50 [5],half-life at 0.5 µM [6],half-life at 0.5 µM [7],bioavailability [8],AUC(0-t) at 6 h [9],Cmax [10],Tmax [11],clearance [12],Vd [13],solubility [14],Ratio (HEK-293T),IC50 [15],EC50 [16],fraction unbound [17]
C=C(C)[C@@H]1CC[C@]2(CO)CC[C@]3(C)[C@H](CC[C@@H]4[C@@]5(C)CC=C(c6ccc(C(=O)O)cc6)C(C)(C)[C@@H]5CC[C@]43C)[C@@H]12,0.011 µM,0.027 µM,2.5,0.212 µM,9.65 µM,2 h,2 h,4%,2.14 µM·h,0.59 µM,5 h,0.126 L/h/kg,0.5 L/kg,Insoluble,,,,
C=C(C)[C@@H]1CC[C@]2(C(=O)O)CC[C@]3(C)[C@H](CC[C@@H]4[C@@]5(C)CC=C(c6ccc(C(=O)O)c(Cl)c6)C(C)(C)[C@@H]5CC[C@]43C)[C@@H]12,0.021 µM,0.331 µM,15,0.589 µM,3.08 µM,,,,,,,,,,,,,
C=C(C)[C@@H]1CC[C@]2(C(=O)O)CC[C@]3(C)[C@H](CC[C@@H]4[C@@]5(C)CC=C(c6ccc(C(=O)O)cc6)C(C)(C)[C@@H]5CC[C@]43C)[C@@H]12,,,,,27.2 µM,2 h,2 h,4%,5.72 µM·h,1.31 µM,4 h,0.06 L/h/kg,0.2 L/kg,Insoluble,1.6,0.027 µM,0.31 µM,
C=C(C)[C@@H]1CC[C@]2(CO)CC[C@]3(C)[C@H](CC[C@@H]4[C@@]5(C)CC=C(c6ccc(C(=O)O)cc6F)C(C)(C)[C@@H]5CC[C@]43C)[C@@H]12,0.055 µM,0.05 µM,1,1.4 µM,16.5 µM,,,,,,,,,,,,,
C=C(C)[C@@H]1CC[C@]2(CO)CC[C@]3(C)[C@H](CC[C@@H]4[C@@]5(C)CC=C(c6ccc(C(=O)O)cc6C)C(C)(C)[C@@H]5CC[C@]43C)[C@@H]12,0.613 µM,0.66 µM,1,3.88 µM,7.02 µM,,,,,,,,,,,,,
C=C(C)[C@@H]1CC[C@]2(CO)CC[C@]3(C)[C@H](CC[C@@H]4[C@@]5(C)CC=C(c6cnc(C(=O)O)nc6)C(C)(C)[C@@H]5CC[C@]43C)[C@@H]12,1.08 µM,1.08 µM,1,> 4 µM,22.3 µM,,,,,,,,,,,,,
C=C(C)[C@@H]1CC[C@]2(CO)CC[C@]3(C)[C@H](CC[C@@H]4[C@@]5(C)CC=C(c6ccc(C(=O)O)c(Cl)c6)C(C)(C)[C@@H]5CC[C@]43C)[C@@H]12,0.024 µM,0.094 µM,3.9,0.262 µM,1.97 µM,,,,,,,,,,,,,
C=C(C)[C@@H]1CC[C@]2(C(=O)O)CC[C@]3(C)[C@H](CC[C@@H]4[C@@]5(C)CC=C(c6ccc(C(=O)O)c(F)c6)C(C)(C)[C@@H]5CC[C@]43C)[C@@H]12,0.018 µM,0.067 µM,3.7,0.036 µM,10.1 µM,,,,,,,,,,,,,
C=C(C)[C@@H]1CC[C@]2(CO)CC[C@]3(C)[C@H](CC[C@@H]4[C@@]5(C)CC=C(c6cc(C(=O)O)no6)C(C)(C)[C@@H]5CC[C@]43C)[C@@H]12,0.039 µM,0.295 µM,7.5,> 2 µM,12.1 µM,,,,,,,,,,,,,
C=C(C)[C@@H]1CC[C@]2(CO)CC[C@]3(C)[C@H](CC[C@@H]4[C@@]5(C)CC=C(c6ccc(C(=O)O)c(O)c6)C(C)(C)[C@@H]5CC[C@]43C)[C@@H]12,0.081 µM,0.065 µM,0.8,2.78 µM,9.76 µM,,,,,,,,,,,,,
C=C(C)[C@@H]1CC[C@]2(CO)CC[C@]3(C)[C@H](CC[C@@H]4[C@@]5(C)CC=C(c6ccc(C(=O)O)c(F)c6)C(C)(C)[C@@H]5CC[C@]43C)[C@@H]12,0.046 µM,0.185 µM,4,0.309 µM,18.8 µM,,,,,,,,,,,,,
C=C(C)[C@@H]1CC[C@]2(C(=O)O)CC[C@]3(C)[C@H](CC[C@@H]4[C@@]5(C)CC[C@H](OC(=O)CC(C)(C)C(=O)O)C(C)(C)[C@@H]5CC[C@]43C)[C@@H]12 [BEVIRIMAT],,,,,,,,18%,,2.59 µM,0.3 h,0.24 L/h/kg,,,,,,< 0.001
C=C(C)[C@@H]1CC[C@]2(CO)CC[C@]3(C)[C@H](CC[C@@H]4[C@@]5(C)CC=C(c6ccc(C(=O)O)c(OC)c6)C(C)(C)[C@@H]5CC[C@]43C)[C@@H]12,0.513 µM,1.19 µM,2.3,> 4 µM,28.7 µM,,,,,,,,,,,,,
